Results as given in PMC12084297, “Cytoplasmic connexin43-microtubule interactions promote glioblastoma stem-like cell maintenance and tumorigenicity” (Cell Death & Disease, 2025).

Assays:
[1] = system: Cx43/α-tubulin interaction; assay: STORM localization, cross-pair correlation of Cx43/α-tubulin interaction in VTC-037 GSCs; type: cell-based, human; conditions: 50 μM, 24 h, n = 10
Method: Cells were washed once with warm PBS before fixing in 4% paraformaldehyde for 20 min at room temperature or ice-cold methanol for 5 min on ice, washed twice, and held in PBS at 4°C until immunostaining was conducted. Cells were permeabilized and blocked in 5% normal goat or donkey serum (Fisher Scientific) and 0.1% Triton X-100 in PBS for 2 h at room temperature. Primary antibodies rabbit anti-Cx43 (MilliporeSigma; C6219), mouse anti-pan Cadherin (MilliporeSigma; C1821), or mouse anti-α-tubulin (MilliporeSigma; T6199) were diluted in blocking buffer and labeling was performed overnight at 4 °C. […]
Stochastic optical reconstruction microscopy (STORM) acquisition was conducted with a Vutara 350 microscope (Bruker). […] To quantify the spatial relationship between target proteins localized by STORM, we utilized cross-pair correlation analysis. […]

Notch1 = Notch1 protein expression, immunoblot, VTC-037 GSCs; type: cell-based, human; conditions: 50 μM, 24 h
Method: Cells were lysed in RIPA buffer (0.1% sodium dodecyl sulphate, 50 mM Tris pH 7.4, 150 mM NaCl, 1 mM EDTA, 1% Triton X-100, 1% deoxycholic acid, 200 μM Na3VO4, and 1 mM NaF) supplemented with Halt^TM Protease and Phosphatase Inhibitor Cocktail (Thermo Fisher). Lysates were sonicated prior to centrifugation at 4 °C for 20 min at 10,000 x g. Protein concentration was quantified using the DC protein assay (Bio-Rad Laboratories) and a standard curve obtained with increasing concentrations of Bovine Serum Albumin (BSA; Fisher Scientific). Protein samples were normalized to 20 μg total protein per lane and resolved by SDS-PAGE electrophoresis. 4X Bolt LDS sample buffer supplemented with 400 mM DTT (final concentration 1X Bolt LDS with 100 mM DTT) was added to samples before heating at 70 °C for 10 min. SDS-PAGE was run using NuPAGE Bis-Tris 4%–12% gradient gels (Thermo Fisher) with MES or MOPS running buffer according to manufacturer’s instructions. Spectra™ Multicolor Protein Ladder (Thermo Fisher) or Precision Plus Protein™ Kaleidoscope™ Prestained Protein Standards (Bio-Rad Laboratories) were included as protein ladders on the same gels. […] Membranes were imaged on a ChemiDoc™ imaging system, and analyzed with Image Lab software (Bio-Rad Laboratories). […]

Sequence: VFFKGVKDRVKGRSD [JM2]
- Cx43-microtubule interaction (cross-pair correlation) [1]: impaired this interaction in situ
- Notch1 protein expression (Notch1): significantly decreased Notch1 expression at the protein level
